Reference: EP4711368A1 (priority 2023, dated 2024)
Like-named read-outs stand apart in the source and are kept apart here.

Assays:
SD rats [1] = test: TC-ED50 after single intravenous injection (Table 2; method not described); assay type: in vivo
SD rats [2] = conditions: rat, in vivo; for MLD: iv
SD rats [3] = test: animal or person; assay type: in vivo; conditions: iv; for Minimal effective analgesic dose / Minimal effective anesthetic dose / Onset time / Righting feflex duration / Sedation Duration: rat, in vivo; for minimal effective dose: Rattus norvegicus
[4] = read-out: Minimal effective analgesic dose
[5] = read-out: Minimal effective anesthetic dose

SMILES	TC-ED50 (SD rats [1]) [mg/kg]	TI (SD rats [2])	MLD (SD rats [2]) [mg/kg]	Minimal effective analgesic dose (SD rats [3]) [mg/kg]	Minimal effective anesthetic dose (SD rats [3]) [mg/kg]	Onset time (SD rats [3]) [min]	Righting feflex duration (SD rats [3]) [min]	Sedation Duration (SD rats [3]) [min]	TI (SD rats [2]; SD)	MLD (SD rats [2]; SD) [mg/kg]	minimal effective dose (SD rats [3]; [4]) [mg/kg]	minimal effective dose (SD rats [3]; [5]) [mg/kg]
CC(C)OC(=O)OCC1N=C(c2ccccn2)c2cc(Br)ccc2N(C)C1=O (stereo not drawn) [Compound 55]	15.4	>20. 0	>20	20	1.0	0.2 to 0.7	2.4 to 25.4	11.3 to 141.0	–	–	–	–
Cc1cnc2n1-c1ccc(Br)cc1C(c1ccccn1)=NC2COC(=O)C(C)C (stereo not drawn) [Compound 97]	9.9	15.0	30	10	2.0	0.4 to 0.7	0.7 to 129.9	16.9 to 187.5	–	–	–	–
CCC(=O)OCC1N=C(c2ccccn2)c2cc(Br)ccc2-n2c(C)cnc21 (stereo not drawn) [Compound 98]	22.0	6.0	30	20	5.0	0.5 to 0.6	11.6 to 17.4	72.5 to 208.7	–	–	–	–
CCC(C)(C)OC(=O)CN1N=C(c2ccccn2)c2cc(Br)ccc2-n2c(C)cnc21 [Compound 313]	–	–	–	–	–	0.53 to 0.97	12.27 to 13.62	43.43 to 66.15	2	30	20	15
Cc1cnc2n1-c1ccc(Br)cc1C(c1ccccn1)=NN2CC(=O)OC1(C)COC1 [Compound 314]	–	–	–	–	–	0.15 to 0.67	1.27 to 1.40	11.02 to 18.83	4	40	–	10
Cc1cnc2n1-c1ccc(Br)cc1C(c1ccccn1)=NN2CCOC(=O)C(C)C [Compound 315]	–	–	–	–	–	0.38 to 0.75	0.58 to 2.35	14.12 to 24.55	2.7	10	30	3.75
Cc1cnc2n1-c1ccc(Br)cc1C(c1ccccn1)=NN2CCOC(=O)N(C)C [Compound 317]	–	–	–	–	–	0.22 to 0.38	4.08 to 25.97	18.73 to 70.28	4	20	10	5
Cc1cnc2n1-c1ccc(Br)cc1C(c1ccccn1)=NN2COC(=O)C(C)C [Compound 318]	–	–	–	–	–	0.52 to 0.63	0.58 to 10.53	24.95 to 35.65	>2	>10	–	5
Cc1cnc2n1-c1ccc(Br)cc1C(c1ccccn1)=NN2COC(=O)CCCl [Compound 319]	–	–	–	–	–	0.38 to 0.48	7.58 to 8.00	21.82 to 52.53	>1.3	>10	–	7.5
Cc1cnc2n1-c1ccc(Br)cc1C(c1ccccn1)=NN2COC(=O)N(C)C [Compound 320]	–	–	–	–	–	0.65 to 0.92	2.03 to 5.98	–	2	30	15	15
Brc1ccc2c(c1)C(c1ccccn1)=NN1CCN=C1N2 [Compound 323]	–	–	–	–	–	0.95 to 1.07	13.12 to 21.08	–	>1.3	>40	30	30
CC(C)OC(=O)CN1C2=NCCN2N=C(c2ccccn2)c2cc(Br)ccc21 [Compound 325]	–	–	–	–	–	0.65	3.65	59.22	>1	>40	40	40
CCOC(=O)CN1N=C(c2ccccn2)C(Br)=CN(C)C1=O [Compound 346]	–	–	–	–	–	0.57	2.63	45.10	>1	>18.4	18.4	18.4
CCOC(=O)CN1N=C(c2ccccn2)C=CN(C)C1=O [Compound 347]	–	–	40	–	–	0.13 to 0.28	2.25 to 4.47	15.35 to 54.20	2	–	20	20
CCOC(=O)CN1N=C(c2ccccn2)C(Cl)=CN(C)C1=O [Compound 348]	–	–	–	–	–	0.75	2.03	116.72	>1	>20	–	20
